The species entered for experiment [1] is Rattus norvegicus. Nature of the experiment: Compound was tested for mucosal protective activity in rats using 4 hr EtOH model. The format is functional.
Experiment [2] has as its system Rattus norvegicus. Nature of the experiment: Compound was tested for diarrheagenic activity in rats after intracolonic administration (I.C). The format is functional.
The species entered for experiment [3] is Rattus norvegicus. Nature of the experiment: Compound was tested for mucosal protective activity against indomethacin-induced gastric damage in rats. The format is functional, Stomach.
Experiment [4] relates to Rattus norvegicus. Put plainly: Compound was tested for diarrheagenic activity in rats after intragastric administration (I.G). The format is functional.
In experiment [5] the test system is Rattus norvegicus. Nature of the experiment: Compound was tested for diarrheagenic activity in rats after intrajejuna administration (I.J). The format is functional.
Experiment [6] is filed under the species Rattus norvegicus. Nature of the experiment: Compound was tested for mucosal protective activity against indomethacin-induced intestinal damage in rats. The format is functional.

With `CCCCC(C)(O)C/C=C/[C@H]1[C@H](O)CC(=O)[C@@H]1CCCCCCC(=O)OC` (stereo partly specified) [MISOPROSTOL], the ED50 in experiment [1] is 525 (ug of misoprostol) kg-1; in experiment [2], 97 (ug of misoprostol) kg-1; in experiment [3], 14 (ug of misoprostol) kg-1; in experiment [4] it was 265 (ug of misoprostol) kg-1; in experiment [5] it was 534 (ug of misoprostol) kg-1; in experiment [6] it was 294 (ug of misoprostol) kg-1.

These data come from ChEMBL document CHEMBL1126983, “Catalytic functionalization of polymers: a novel approach to site specific delivery of misoprostol to the stomach” (1993).
